Laboratory results reported in publication PMC9611166, “Cocrystal Prediction of Bexarotene by Graph Convolution Network and Bioavailability Improvement” (Pharmaceutics, 2022).
Values after ≈ are worked out from the molar mass of the structure shown.

Columns and labels:
[1] = Equilibrium solubility in buffer solutions with 0.05% CTAB; format: physicochemical; conditions: for solubility thermodynamic at 1 day: buffer solution with 0.05% CTAB, aqueous with cosolvent or surfactant or cyclodextrin, thermodynamic from solid, 0.05% CTAB, 37 °C, one day
Experimental: (§1) The concentration of BEX samples was detected by the Agilent 1260 Series Infinite HPLC. The Eclipse XDB-C18 column (4.6 × 150 mm, 5 μm) was used to separate the analytes. The column temperature was set at 30 °C and the injection volume was 10 μL. The mobile phase was composed of 0.1% trifluoroacetic acid in water and acetonitrile (10:90, v/v) pumped at 1.0 mL/min. The 260 nm was set as the UV-vis detection wavelength.
Excess amounts (10 mg) of BEX and four cocrystals samples were added to the 4 mL of pH 2.0, 4.5, and 6.8 buffer solutions respectively, with the presence of 0.05% CTAB (hexadecyl trimethyl ammonium bromide). Then the saturated solutions were stirred at 300 rpm for one day at 37 °C. The equilibrium solubility of BEX was determined by HPLC after filtering the solutions.

[2] = Powder dissolution at pH 6.8 with 0.05% CTAB; format: physicochemical
Experimental: as §1
The solid samples of BEX and four cocrystals were sieved through 100-mesh sieves. In total, 20 mg of BEX and corresponding cocrystal powders (n = 3) were added to pH 6.8 phosphate buffer with the presence of 0.05% CTAB at 37 °C, rotating at 100 rpm. The samples were collected at 5, 10, 15, 20, 30, 40, 50, and 60 min. The concentration was measured by HPLC.

[3] = Pharmacokinetics in rats; format: in vivo; conditions: male, Sprague-Dawley, rat, plasma, po, 10 mg/kg BEX, 0.5% CMC-Na suspension, mean ± SD
Experimental: The PK studies were performed according to the Guide for Care and Use of Laboratory Animals and were approved by the Institutional Animal Care and Use Committee of Shanghai Institute of Materia Medica. There were two groups of male Sprague−Dawley rats and the number of rats is six in each group. […] The dose is 10 mg/kg BEX. The animals had free access to water and fasted overnight before dosing. After the administration, the 600 μL blood sample was collected at 0.5, 1, 2, 3, 4, 6, and 8 h. Plasma was separated by centrifugation (14,000 rpm, 10 min) and stored at −80 °C. In total, 200 μL of rat plasma sample was mixed with 600 μL acetonitrile through a vortex mixer for 20 min and centrifuged for 5 min (14,000 rpm). The BEX concentration was measured by the SCIEX Triple Quad™ 4500 LC-MS instrument. The analytes were separated by the Supelco Ascentis Express C18 column (2.1 × 50 mm, 2.7 μm). The column temperature was set at 35 °C. The mobile phase was composed of 0.2% formic acid in water (solvent A) and acetonitrile (solvent B) pumped at 0.6 mL/min. The gradient elution program started with 55% B and increased linearly to 90% B at 1.5 min and held for 0.5 min. It returned to the 55% B at the 3 min and held for 2 min. The injection volume was 10 μL, and the UV-vis detection wavelength was set at 260 nm. The negative ion detection mode was operated in the mass spectrometer. Multiple reaction monitoring modes (MRM) was used to perform the detection and quantification, with m/z 347.3→303.0 for BEX. The DAS 2.0 program was used to perform the PK analysis.

[4] = parameters: method as in PMID 24333772; conditions: cited from earlier work

For `C=C(c1ccc(C(=O)O)cc1)c1cc2c(cc1C)C(C)(C)CCC2(C)C` [BEX, Bexarotene], the solubility thermodynamic at 1 day ([1]; pH 2.0 buffer) was less than 10 µg/mL, the solubility thermodynamic at 1 day ([1]; pH 4.5 buffer) was greater than 10 µg/mL and the solubility thermodynamic at 1 day ([1]; pH 6.8 buffer) was roughly 30 µg/mL (≈ 86.1 µM). For the same compound, the “pH value of solution after equilibrium solubility experiment” value ([1]; starting buffer pH 2.00, n = 3) was 2.06 ± 0.01, the “pH value of solution after equilibrium solubility experiment” value ([1]; starting buffer pH 4.50, n = 3) was 4.58 ± 0.01 and the “pH value of solution after equilibrium solubility experiment” value ([1]; starting buffer pH 6.80, n = 3) was 6.82 ± 0.02. The “pH value of solution after powder dissolution” value ([2]; pH 6.8, n = 3) was 6.81 ± 0.01, the solubility at 60 min ([2]; phosphate buffer with 0.05% CTAB, aqueous with cosolvent or surfactant or cyclodextrin, thermodynamic from solid, pH 6.8 phosphate buffer, 0.05% CTAB, 37 °C, 60 min, read-out: measured solubility in powder dissolution after 60 min) was roughly 30 µg/mL (≈ 86.1 µM) and the AUC(0-inf) [3] was 8790 ± 1080 ng·h/mL. The Cmax [3] was 1680 ± 559 ng/mL, the half-life [3] was 2.98 ± 1.18 h and the AUC(0-t) ([3]; read-out: AUC0−8h) was 7220 ± 811 ng·h/mL. The absolute bioavailability [4] was “less than 20%”.
